Reference: PubChem BioAssay AID248 (DTP/NCI, 2004)
Where “and” joins values, the source holds several entries; their conditions need not be identical. Equal entries are not always repeated. Inconclusive results and toxic doses are left out. No stated cut-off is given here; in the data, active means T/C of 150% or more; inactive means T/C below 125%.

System: L1210 leukemia ip in BDF1 mice, survival T/C
Experiment: NCI In Vivo Anticancer Drug Screen. Data for tumor model L1210 Leukemia (intraperitoneal) in B6D2F1 (BDF1) mice
Conditions: higher = longer survival
Method in brief: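 Read-out is survival time, reported as the treated-group measurement over the vehicle-control measurement.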

[1] = endpoint: mean survival time, dose: 100.0 mg/kg/injection, schedule: Q01DX009 (ip), vehicle: Klucel (hydroxypropylcellulose) (HPC)
[2] = endpoint: mean survival time, dose: 100.0 mg/kg/injection, schedule: Q04DX003 (ip), vehicle: Klucel (hydroxypropylcellulose) (HPC)
[3] = endpoint: mean survival time, dose: 200.0 mg/kg/injection, schedule: Q01DX009 (ip), vehicle: Klucel (hydroxypropylcellulose) (HPC)
[4] = endpoint: mean survival time, dose: 200.0 mg/kg/injection, schedule: Q04DX003 (ip), vehicle: Klucel (hydroxypropylcellulose) (HPC)
[5] = endpoint: mean survival time, dose: 400.0 mg/kg/injection, schedule: Q01DX009 (ip), vehicle: Klucel (hydroxypropylcellulose) (HPC)
[6] = endpoint: mean survival time, dose: 400.0 mg/kg/injection, schedule: Q04DX003 (ip), vehicle: Klucel (hydroxypropylcellulose) (HPC)
[7] = endpoint: mean survival time, dose: 100.0 mg/kg/injection, schedule: Q01DX009 (ip), vehicle: saline with Tween-80
[8] = endpoint: mean survival time, dose: 100.0 mg/kg/injection, schedule: Q04DX003 (ip), vehicle: saline with Tween-80
[9] = endpoint: mean survival time, dose: 200.0 mg/kg/injection, schedule: Q04DX003 (ip), vehicle: saline with Tween-80
[10] = endpoint: mean survival time, dose: 400.0 mg/kg/injection, schedule: Q04DX003 (ip), vehicle: saline with Tween-80
[11] = endpoint: mean survival time, dose: 100.0 mg/kg/injection, schedule: Q01DX001 (ip), vehicle: saline
[12] = endpoint: mean survival time, dose: 200.0 mg/kg/injection, schedule: Q01DX001 (ip), vehicle: saline
[13] = endpoint: mean survival time, dose: 400.0 mg/kg/injection, schedule: Q01DX001 (ip), vehicle: saline
[14] = endpoint: mean survival time, dose: 100.0 mg/kg/injection, schedule: Q04DX002 (ip), vehicle: saline with Tween-80
[15] = endpoint: mean survival time, dose: 200.0 mg/kg/injection, schedule: Q04DX002 (ip), vehicle: saline with Tween-80
[16] = endpoint: mean survival time, dose: 400.0 mg/kg/injection, schedule: Q04DX002 (ip), vehicle: saline with Tween-80
[17] = endpoint: mean survival time, dose: 100.0 mg/kg/injection, schedule: Q01DX001 (ip), vehicle: saline with Tween-80
[18] = endpoint: mean survival time, dose: 200.0 mg/kg/injection, schedule: Q01DX001 (ip), vehicle: saline with Tween-80
[19] = endpoint: mean survival time, dose: 400.0 mg/kg/injection, schedule: Q01DX001 (ip), vehicle: saline with Tween-80

Measured: T/C

NC(N)=NC(N)=Nc1ccc2ccccc2c1[N+](=O)[O-]
inactive: [1] 94 % of control | [2] 97 % of control | [3] 100 % of control | [4] 100 % of control | [5] 98 % of control | [6] 95 % of control

O=C(O)/C(=C\c1ccccc1)Sc1ccccc1
inactive: endpoint: mean survival time, dose: 75.0 mg/kg/injection, schedule: Q01DX001 (ip), vehicle: acetone 105 % of control | endpoint: mean survival time, dose: 150.0 mg/kg/injection, schedule: Q01DX001 (ip), vehicle: acetone 98 % of control | endpoint: mean survival time, dose: 300.0 mg/kg/injection, schedule: Q01DX001 (ip), vehicle: acetone 100 % of control

O=C(OCc1ccccc1CN1CCOCC1)c1ccc(Cl)cc1
inactive: endpoint: mean survival time, dose: 100.0 mg/kg/injection, schedule: Q04DX002 (ip), vehicle: Klucel (hydroxypropylcellulose) (HPC) 103 % of control | endpoint: mean survival time, dose: 200.0 mg/kg/injection, schedule: Q04DX002 (ip), vehicle: Klucel (hydroxypropylcellulose) (HPC) 106 % of control | endpoint: mean survival time, dose: 400.0 mg/kg/injection, schedule: Q04DX002 (ip), vehicle: Klucel (hydroxypropylcellulose) (HPC) 100 % of control

Cc1cc(C(=O)O)c2cccc(C(F)(F)F)c2n1
inactive: [7] 112 % of control | [8] 111 % of control | endpoint: mean survival time, dose: 200.0 mg/kg/injection, schedule: Q01DX009 (ip), vehicle: saline with Tween-80 103 % of control | [9] 114 % of control | endpoint: mean survival time, dose: 400.0 mg/kg/injection, schedule: Q01DX009 (ip), vehicle: saline with Tween-80 101 % of control | [10] 103 % of control

COc1ccc(NC(=O)COc2ccc(Cl)cc2)cc1
inactive: [1] 93 % of control | [2] 100 % of control | [3] 90 % of control | [4] 106 % of control | [5] 92 % of control | [6] 93 % of control

Clc1ccc(/C=C/c2cccc(/C=C/c3ccc(Cl)cc3)n2)cc1
inactive: [2] 96 % of control | [4] 97 % of control | [6] 97 % of control

Cc1ccc(S(=O)(=O)N2CCc3ccccc3C(=O)C2)cc1
inactive: [11] 97 % of control | [12] 94 % of control | [13] 94 % of control

CC(C)(c1cccs1)c1cscc1C(=O)O
inactive: endpoint: mean survival time, dose: 100.0 mg/kg/injection, schedule: Q04DX003 (ip), vehicle: saline 108 % of control | endpoint: mean survival time, dose: 200.0 mg/kg/injection, schedule: Q04DX003 (ip), vehicle: saline 113 % of control | endpoint: mean survival time, dose: 400.0 mg/kg/injection, schedule: Q04DX003 (ip), vehicle: saline 105 % of control

CCC1COP(=O)(c2ccccc2)OC1 (stereo not drawn)
inactive: [11] 103 % of control | [12] 103 % of control | [13] 100 % of control

CC1CC(=O)Oc2cc(O)c(O)cc21 (stereo not drawn)
inactive: [11] 101 % of control | [12] 95 % of control | [13] 95 % of control

CC1(C)N=C(N)N=C(N)N1c1ccc(OCCNS(=O)(=O)c2cccc(S(=O)(=O)F)c2)c(Cl)c1
inactive: endpoint: median survival time, dose: 100.0 mg/kg/injection, schedule: Q01DX001 (ip), vehicle: Klucel (hydroxypropylcellulose) (HPC) 105 % of control | endpoint: median survival time, dose: 200.0 mg/kg/injection, schedule: Q01DX001 (ip), vehicle: Klucel (hydroxypropylcellulose) (HPC) 100 % of control | endpoint: median survival time, dose: 400.0 mg/kg/injection, schedule: Q01DX001 (ip), vehicle: Klucel (hydroxypropylcellulose) (HPC) 105 % of control

CC(=O)CSc1nc2ccccc2s1
inactive: endpoint: mean survival time, dose: 50.0 mg/kg/injection, schedule: Q01DX009 (ip), vehicle: Klucel (hydroxypropylcellulose) (HPC) 95 % of control | [1] 104 % of control | [3] 111 % of control

COc1cc(C2=N/C(=C\C=C\c3ccccc3)C(=O)O2)cc(OC)c1OC
inactive: [14] 95 % of control | [15] 95 % of control | [16] 95 % of control

CCCCC(=O)N1C(C)CCCC1C (stereo not drawn)
inactive: endpoint: mean survival time, dose: 25.0 mg/kg/injection, schedule: Q04DX002 (ip), vehicle: saline 88 % of control | endpoint: mean survival time, dose: 50.0 mg/kg/injection, schedule: Q04DX002 (ip), vehicle: saline 91 % of control | endpoint: mean survival time, dose: 100.0 mg/kg/injection, schedule: Q04DX002 (ip), vehicle: saline 94 % of control | endpoint: mean survival time, dose: 400.0 mg/kg/injection, schedule: Q04DX002 (ip), vehicle: saline 96 % of control

CC(C)(Cl)N=Nc1ccc([N+](=O)[O-])cc1[N+](=O)[O-]
inactive: [8] 96 % of control | [9] 98 % of control | [10] 88 % of control

CC(=O)Nc1nc(/C=N/NC(N)=S)cc(=O)[nH]1
inactive: endpoint: mean survival time, dose: 75.0 mg/kg/injection, schedule: Q01DX001 (ip), vehicle: other 100 % of control | endpoint: mean survival time, dose: 150.0 mg/kg/injection, schedule: Q01DX001 (ip), vehicle: other 96 % of control | endpoint: mean survival time, dose: 300.0 mg/kg/injection, schedule: Q01DX001 (ip), vehicle: other 105 % of control

CS(=O)(=O)Nc1cc(Cl)c(NS(C)(=O)=O)c(Cl)c1Cl
inactive: [17] 101 % of control | [18] 96 % of control | [19] 107 % of control

COC(=O)C1C2CCC3C2C(C)(C)CCCC31C (stereo not drawn)
inactive: [2] 98 % of control | [4] 106 % of control | [6] 103 % of control

OC(CCl)Cc1ccccc1 (stereo not drawn)
inactive: endpoint: mean survival time, dose: 25.0 mg/kg/injection, schedule: Q01DX009 (ip), vehicle: saline with Tween-80 93 % of control | endpoint: mean survival time, dose: 50.0 mg/kg/injection, schedule: Q01DX009 (ip), vehicle: saline with Tween-80 90 % of control | [7] 92 % of control

CCOC(=O)NC(/C=C/c1ccccc1)NC(=O)OCC
inactive: endpoint: mean survival time, dose: 50.0 mg/kg/injection, schedule: Q01DX001 (ip), vehicle: carboxymethylcellulose (CMC) 92 % of control | endpoint: mean survival time, dose: 100.0 mg/kg/injection, schedule: Q01DX001 (ip), vehicle: carboxymethylcellulose (CMC) 95 % of control | [11] 102 % of control | [12] 96 % of control | endpoint: mean survival time, dose: 400.0 mg/kg/injection, schedule: Q01DX001 (ip), vehicle: carboxymethylcellulose (CMC) 95 % of control | [13] 100 % of control

CN(C)c1ccc(/C=C(\C#N)c2ccc([N+](=O)[O-])cc2)c(Cl)c1
inactive: [8] 91 % of control | [9] 96 % of control | [10] 96 % of control

CNC(=S)N/N=C/c1ccc(N(C)CCC#N)cc1
inactive: [1] 96 % of control | [3] 93 % of control

CC(=O)NC1C(OCc2ccccc2)OC2COC(C)(C)OC2C1O (stereo not drawn)
inactive: [17] 107 % of control | [18] 93 % of control | [19] 110 % of control

Cc1cc(OC(=O)Nc2cc(C(F)(F)F)ccc2Cl)cc(C)c1Cl
inactive: [1] 91 % of control | [3] 104 % of control | [5] 93 % of control

COc1ccc(-c2sc(/N=C/c3ccc(N(C)CCC#N)cc3)c(C#N)c2C)cc1OC
inactive: [17] 100 % of control | [14] 103 % of control and 118 % of control | [8] 102 % of control and 91 % of control | [18] 91 % of control | [15] 93 % of control and 96 % of control | [9] 95 % of control and 98 % of control | [19] 100 % of control | [16] 104 % of control and 106 % of control | [10] 102 % of control and 91 % of control

C=CCOc1cc[n+]([O-])cc1
inactive: [11] 100 % of control | [12] 105 % of control

O=C(O)/C=C/C1CCCCC1
inactive: endpoint: mean survival time, dose: 75.0 mg/kg/injection, schedule: Q01DX001 (ip), vehicle: saline 97 % of control | endpoint: mean survival time, dose: 150.0 mg/kg/injection, schedule: Q01DX001 (ip), vehicle: saline 95 % of control | endpoint: mean survival time, dose: 300.0 mg/kg/injection, schedule: Q01DX001 (ip), vehicle: saline 95 % of control
